Here are results for 1 compound from patent US20130195770A1, “COMPOSITION AND METHOD FOR REDUCING ATHEROSCLEROTIC LESIONS” (DuPont Nutrition Bioscience ApS, priority 2010, published 2013).

The test system of one data set is Transgenic mice. Nature of the data set: Aorta surface covered by atherosclerotic lesions, en face ORO staining. The data set is classed as in vivo. As to conditions: 28 weeks. The source says:
The surface of aorta covered with atherosclerotic lesions was quantified as described by Palinski et al. (1994) and Zampolli et al. (2006). Non-fasted animals were anesthetized with pentobarbital injected intraperitoneally. Next, maximum volume of blood was collected from the heart by direct cardiac puncture of the right ventricle. Blood was kept for further analyses as described above. The heart and arterial tree were then flushed with a heparin-containing cardioplegic solution via a cannula inserted into the left ventricle, followed by perfusion with formalin for 5 minutes. The arterial tree was exposed, branching arteries were removed and entire aorta was dissected from the aortic arch down to the iliac bifurcation. Using a stereomicroscope, aortas were cleaned from periadventitial tissue; remaining branches were cut off and opened longitudinally by incision following the inner curvature of the aortic arch and the ventral side of the aorta. Additional incisions followed the outer curvature of the arch to the subclavian artery. An Oil Red 0 (ORO) staining solution was prepared by diluting the ORO stock solution (5 mg/ml in 2-propanol; Sigma Aldrich) with deionized water (6:4). Dissected aortas were stained for 30 minutes with ORO, followed by rinsing with 2-propanol and deionized water. Stained aortas were then laid flat on the microscope slide with endothelial side facing upwards. The tissues were mounted with aqueous mounting agent (Aquatex®, Merck Chemicals, Darmstadt, Germany) and covered with glass slide cover slip.
Digital images of the slides were obtained through the 48-bit color scanner (Canoscan 9950F, Canon) with 1200 DPI resolution. The images were captured in Photoshop CS3 Extended software and converted to gray scale. After further processing, including sharpness, contrast and brightness adjustments, and the image of aorta was printed out in two copies. […] Images of a hand-drawn aorta outlines and regions (patches) matching atherosclerotic lesions were then scanned and re-imported into Adobe Photoshop and the images were then evaluated obtain the percent of aorta covered with atherosclerotic lesions. Briefly, in the digitized image of entire aorta and the image of the patches corresponding to lesions, red outlined areas were converted to black and the blackness values for all pixels in the image were summed and counted.
Transgenic mice were randomized into 5 dietary regiments: (1) Normal chow (NC), (2) NC+0.2% cholesterol oleate (CLE), (3) Western type diet (WD) containing 0.2% cholesterol, (4) WD containing 0.2% cholesterol and 0.2% CLE, (5) WD containing 0.1% cholesterol and 0.1% CLE. The extent of the lesions was quantified as percent area positive to lipid staining by ORO in the entire aorta after 28 weeks of experimental treatments.

In data set [1] the test system is wild type male mice (C57BL/6J). Nature of the data set: Intestinal absorption of cholesteryl oleate in mice, plasma dual isotope ratio method. The data set is classed as in vivo. As to conditions: oral bolus [14C]-cholesteryl oleate in skimmed milk, plasma after three days; p<0.001; FIG. 2B.
Experimental: The net intestinal absorption of cholesterol and cholesteryl esters was measured using the plasma dual isotope ratio method described in Wang et al (Journal of Lipid Research, [2003] 44, 1042-1059). This method is based on the simultaneous intragastric (IG) and intravenous (IV) administration of [^3H] -cholesterol and [^14C] -cholesterol, respectively, and measurement of plasma cholesterol isotope ratios at a set point in time. By definition, the IV [^14C]-cholesterol dose corresponds to “100% absorption”, whereas the [^3H]-cholesterol found in the blood reflects the absorption by the gastrointestinal tract. The method allows correction for post-absorptive cholesterol metabolism and for colonic handling of the malabsorbed labelled cholesterol by defining Fifteen wild type male mice (C57BL/6J), age of 5 weeks were randomly assigned into 3 groups. An amount of 2.5 μCi of [^3H]-cholesterol was dissolved in 100 μl of phosphate buffered saline (PBS) and injected into the tail vein of non fasted and not-anesthetized animals. The animal were then given an oral bolus (IG) dose of either [^14C]-cholesterol, [^14C]-cholesterol+unlabeled cholesteryl oleate (molar ratio 1:1) or [^14C]-cholesteryl oleate dissolved in skimmed milk. […] The percent of cholesterol absorption in plasma was calculated using (1).
For data set [2], the system named is wild type male mice (C57BL/6J). Nature of the data set: Intestinal absorption of cholesterol in mice, plasma dual isotope ratio method, with added cholesteryl oleate. It counts as in vivo. As to conditions: oral bolus [14C]-cholesterol + unlabeled cholesteryl oleate (molar ratio 1:1) in skimmed milk, plasma after three days; p<0.05; FIG. 2A. The method, then: The net intestinal absorption of cholesterol and cholesteryl esters was measured using the plasma dual isotope ratio method described in Wang et al (Journal of Lipid Research, [2003] 44, 1042-1059). This method is based on the simultaneous intragastric (IG) and intravenous (IV) administration of […], and measurement of plasma cholesterol isotope ratios at a set point in time. By definition, the […] corresponds to “100% absorption”, whereas the [^3H]-cholesterol found in the blood reflects the absorption by the gastrointestinal tract. The method allows correction for post-absorptive cholesterol metabolism and for colonic handling of the malabsorbed labelled cholesterol by […] Fifteen wild type male mice (C57BL/6J), age of 5 weeks were randomly assigned into 3 groups. An amount of 2.5 μCi of [^3H]-cholesterol was dissolved in 100 μl of phosphate buffered saline (PBS) and injected into the tail vein of non fasted and not-anesthetized animals. The animal were then given an oral bolus (IG) dose of either [^14C]-cholesterol, [^14C]-cholesterol+unlabeled cholesteryl oleate (molar ratio 1:1) or [^14C]-cholesteryl oleate dissolved in skimmed milk. […] The percent of cholesterol absorption in plasma was calculated using (1).

Data set [3] concerns CaCo-2 cells. Nature of the data set: Uptake of micellar cholesterol by CaCo-2 cells with or without unlabeled cholesteryl oleate. As to conditions: CaCo-2 monolayers, 45 min at 37° C., [1,2-3H] cholesterol micelles with or without unlabeled cholesteryl oleate; p<0.001; FIG. 1A. It counts as cell-based, Human. The text has this:
(§1) Human colon adenocarcinoma (Caco-2) cells were kindly provided by J T Rasmussen (Department of Molecular Biology Aarhus University C. F. M0llers Alle 3DK-8000 Aarhus CDenmark). Cells were routinely maintained in NUNCLON flasks in Dulbecco's […] (DMEM) supplemented with 4.5g/1 glucose. 10% heat-inactivated fetal bovine serum (FBS), 1% nonessential amino acid (NEAA), and 1% antibiotics (complete medium), as previously described (Hidalgo I J. Raub T J. Borchardt R T, Gastroenterology, (1989) ar;96(3):736-49). Once the flasks reached 80% confiuency, the cells were dispersed and seeded into 24-well plates at density 10^5 cells/well in DMEM supplemented with 10% FBS and 1% NEAA. […]
(§2) Micelles were prepared according to the method described by Kirana (Kirana C. Rogers P F, Bennett L E, Abevwardena M Y, Patten G S, J Agric Food Chem. (2005) Jun. 1; 53(1 1):4623-7) with slight modifications. […] The particle size of micelles was determined by dynamic light scattering (DLS) with use of the Malvern Zetasizer Nano series machine using latex 60 nm Nanosphere Size Standard.
Monolayers were incubated at 37° C. for 45 min in micellar solutions containing [1,2-^3H] cholesterol with or without unlabeled cholesteryl oleate. […] The cells were analyzed as described above. […]

For data set [4], the system named is CaCo-2 cells. Nature of the data set: Uptake of micellar cholesteryl oleate by CaCo-2 cells. The data set is classed as in vitro ADME, Human. As to conditions: micelles containing [1,2-3H] cholesteryl oleate vs labeled cholesterol, FIG. 1B.
From the text: as §1, §2
Differentiated Caco-2 cells were incubated at 37° C. for 1, 3 and 5 hours with micellar solutions containing ^3H-labelled cholesteryl oleate according to the method described above. […] For quantitative analysis ^14C-cholesterol was used as an external standard to correct for the extraction efficiency. […]

Take `CCCCCCCC/C=C\CCCCCCCC(=O)O[C@H]1CC[C@@]2(C)C(=CC[C@H]3[C@@H]4CC[C@H]([C@H](C)CCCC(C)C)[C@@]4(C)CC[C@@H]32)C1` [cholesteryl oleate]: the “effect on atherosclerotic lesions in Western type diet” value in the data set with Transgenic mice (WD vs WD+0.2% CLE and WD+0.1% CLE, FIGS. 3 and 4) is “lowered atherosclerotic lesions”. Also, the “rate of atherosclerosis, WD+0.2% CLE compared with WD+0.1% CLE” value in the data set on Transgenic mice (mice fed WD+0.2% CLE) is given as “higher rates of atherosclerosis than mice fed with WD+0.1% CLE”. Besides, in the data set with Transgenic mice (normal chow (NC)+0.2% CLE), the “total plaque area (percent area positive to ORO in the entire aorta)” value was 1.2±0.9%. Also, the “difference in plaque formation between NC and NC+0.2% CLE” value in the data set with Transgenic mice (normal chow) is recorded as “no difference between those two treatments”. Also, the “reduction in cholesterol uptake compared to mice treated with [14C]-cholesterol” value in data set [1] came to 50%. For the same compound, the “reduction in cholesterol adsorption compared to [14C]-cholesterol treated mice” value in data set [2] turned out to be 12%. Further, the “more cholesterol accumulated by cells incubated with cholesterol micelles alone compared to micelles containing both cholesterol and cholesteryl oleate” value in the data set with CaCo-2 cells [3] was 30%. Further, in the data set with CaCo-2 cells [4], the “fold less labeled sterol in cells incubated with cholesteryl oleate micelles compared to cholesterol micelles” value is “approximately 2 fold”.
